# Measurements reported in patent US20240287138A1, “CYCLIC PEPTIDES FOR INHIBITING TNF RECEPTOR 1 ACTIVITY” (Merck Sharp & Dohme LLC, priority 2023, published 2024).
# Read-outs that look alike come from different tables or passages of the source. Numbered stars: 1 amine (or outer) side, 2 acyl side, 3 side chain; on linkers, the order of the positions; unused ones are H or OH. Bridge positions count the residues as written; N and C are the ends. Square brackets hold non-standard residues; d marks the D form. Peptide text beside a SMILES is read from it. Trp(βS-Me,7-OMe) = COc1cccc2c([C@H](C)[C@H](N)C(=O)O)c[nH]c12; Morpholine(3S-CO,6,6-Me2) = CC1(C)CN[C@H](C(=O)O)CO1; Trp(7-CN) = N#Cc1cccc2c(C[C@H](N)C(=O)O)c[nH]c12; Trp(7-Cl) = N[C@@H](Cc1c[nH]c2c(Cl)cccc12)C(=O)O; Phe(4-CONH2) = NC(=O)c1ccc(C[C@H](N)C(=O)O)cc1; Phe(4-COOH) = N[C@@H](Cc1ccc(C(=O)O)cc1)C(=O)O; Trp(7-aza) = N[C@@H](Cc1c[nH]c2ncccc12)C(=O)O; Pip(5R-OH) = O=C(O)[C@@H]1CC[C@@H](O)CN1; X1 = O=C([C@@H]1CC[C@H](N[*:1])C1)[*:2]; Pip(4-aza) = O=C(O)[C@@H]1CNCCN1; 4Pal = N[C@@H](Cc1ccncc1)C(=O)O; dHyp = O=C(O)[C@H]1C[C@H](O)CN1; Gly(N-CH2CH2OH) = O=C(O)CNCCO; NEtAla = CCN[C@@H](C)C(=O)O; αMeS = C[C@](N)(CO)C(=O)O; Nle = CCCC[C@H](N)C(=O)O; Sar = CNCC(=O)O
# Tests used:
# [1] = target: T1, human TNFR2 ECD protein (Homo sapiens, UniProt P20333); assay: SPR off-target binding (selectivity) to human TNFR2 ECD
# T1 construct: HRV 3C protease cleavage site (C); 6His (C, cleaved yes); made in house; host or cells: Sf21 insect cells (baculovirus), secreted
# T1 sequence (P20333 23-257): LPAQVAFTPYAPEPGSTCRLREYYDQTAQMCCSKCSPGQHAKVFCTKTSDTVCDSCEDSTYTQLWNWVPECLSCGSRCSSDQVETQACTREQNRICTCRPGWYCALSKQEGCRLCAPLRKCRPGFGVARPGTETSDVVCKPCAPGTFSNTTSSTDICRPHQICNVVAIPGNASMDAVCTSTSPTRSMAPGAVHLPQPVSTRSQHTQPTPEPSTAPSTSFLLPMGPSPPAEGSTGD
# Outline: (§1)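 Insect-cell human receptor ECDs, enzymatically biotinylated, immobilized via streptavidin capture chip. Peptide binding and dissociation measured in RU in pH 7.4 HEPES buffer containing 2% DMSO; chip regenerated per analyte. Rate constants give affinity.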
# [2] = target: T2, human TNFR1 extracellular domain (ECD) protein (Homo sapiens, UniProt P19438); assay: SPR binding affinity to captured human TNFR1 ECD
# T2 construct: HRV 3C protease cleavage site (C); 6His (C, cleaved yes); made in house; host or cells: Sf21 insect cells (baculovirus), secreted
# T2 sequence (P19438 30-211): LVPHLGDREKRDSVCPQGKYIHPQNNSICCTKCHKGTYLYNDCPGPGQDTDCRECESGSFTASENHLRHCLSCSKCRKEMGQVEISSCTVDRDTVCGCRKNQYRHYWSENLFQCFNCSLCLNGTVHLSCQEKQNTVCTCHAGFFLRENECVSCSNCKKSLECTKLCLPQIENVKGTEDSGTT
# Outline: as §1
# [3] = biotinylated human TNFR2 ECD on streptavidin chip, read-out: SPR hTNFR2 KD
# [4] = biotinylated human TNFR1 ECD on streptavidin chip, from kon and koff, read-out: SPR hTNFR1 KD
SMILES,"Kd [1, 3] [nM]","Kd [2, 4] [nM]",Kd [1] [nM],Kd [2] [nM]
"CCCC[C@@H]1NC(=O)[C@@H]2CC[C@@H](C2)NC(=O)[C@H]([C@@H](C)c2c[nH]c3c(OC)cccc23)NC(=O)CN(C)C(=O)[C@H](Cc2ccc(C(N)=O)cc2)NC(=O)[C@H](Cc2ccc(C(N)=O)cc2)NC(=O)[C@](C)(CO)NC(=O)[C@H](Cc2c[nH]c3c(C#N)cccc23)NC(=O)[C@H](Cc2ccc(C(=O)O)cc2)NC(=O)[C@H](CC(N)=O)NC(=O)[C@H]2C[C@H](O)CN2C(=O)[C@H](Cc2c[nH]c3ncccc23)NC(=O)[C@@H]2CC[C@@H](O)CN2C(=O)[C@H](Cc2ccncc2)NC1=O [SEQ ID NO. 254] (cyclo([4Pal][Pip(5R-OH)][Trp(7-aza)][dHyp]N[Phe(4-COOH)][Trp(7-CN)][αMeS][Phe(4-CONH2)][Phe(4-CONH2)][Sar][Trp(βS-Me,7-OMe)][X1][Nle]))",> 1000,0.02,–,–
"CCCC[C@@H]1NC(=O)CSC[C@@H](C(N)=O)NC(=O)[C@H]([C@@H](C)c2c[nH]c3c(OC)cccc23)NC(=O)CN(C)C(=O)[C@H](Cc2ccc(O)cc2)NC(=O)[C@H](Cc2ccc(C(=O)O)cc2)NC(=O)[C@](C)(CO)NC(=O)[C@H](Cc2c[nH]c3c(Cl)cccc23)NC(=O)[C@H](Cc2ccncc2)NC(=O)[C@H](CC(N)=O)NC(=O)[C@H](C)N(CC)C(=O)[C@H](Cc2c[nH]c3ccccc23)NC(=O)[C@@H]2COC(C)(C)CN2C(=O)[C@H](Cc2ccncc2)NC1=O [SEQ ID NO. 183] ({CH2CO}-[Nle][4Pal][Morpholine(3S-CO,6,6-Me2)]W[NEtAla]N[4Pal][Trp(7-Cl)][αMeS][Phe(4-COOH)]Y[Sar][Trp(βS-Me,7-OMe)]C-NH2; thioether N-14)",> 1000,0.1,–,–
"CCCC[C@@H]1NC(=O)[C@@H]2CC[C@@H](C2)NC(=O)[C@H]([C@@H](C)c2c[nH]c3c(OC)cccc23)NC(=O)CN(C)C(=O)[C@H](Cc2ccc(C(N)=O)cc2)NC(=O)[C@H](Cc2ccc(C(N)=O)cc2)NC(=O)[C@](C)(CO)NC(=O)[C@H](Cc2c[nH]c3c(Cl)cccc23)NC(=O)[C@H](Cc2ccc(C(=O)O)cc2)NC(=O)[C@H](CC(N)=O)NC(=O)[C@H]2C[C@H](O)CN2C(=O)[C@H](Cc2c[nH]c3ccccc23)NC(=O)[C@@H]2CC[C@@H](O)CN2C(=O)[C@H](Cc2ccncc2)NC1=O [SEQ ID NO. 196] (cyclo([4Pal][Pip(5R-OH)]W[dHyp]N[Phe(4-COOH)][Trp(7-Cl)][αMeS][Phe(4-CONH2)][Phe(4-CONH2)][Sar][Trp(βS-Me,7-OMe)][X1][Nle]))",> 1000,0.05,–,–
"CCCC[C@@H]1NC(=O)[C@@H]2CC[C@@H](C2)NC(=O)[C@H]([C@@H](C)c2c[nH]c3c(OC)cccc23)NC(=O)CN(C)C(=O)[C@H](Cc2ccc(O)cc2)NC(=O)[C@H](Cc2ccc(C(=O)O)cc2)NC(=O)[C@](C)(CO)NC(=O)[C@H](Cc2c[nH]c3c(Cl)cccc23)NC(=O)[C@H](Cc2ccncc2)NC(=O)[C@H](CC(N)=O)NC(=O)CN(CCO)C(=O)[C@H](Cc2c[nH]c3ccccc23)NC(=O)[C@@H]2CNCCN2C(=O)[C@H](Cc2ccncc2)NC1=O [SEQ ID NO. 72] (cyclo([4Pal][Trp(7-Cl)][αMeS][Phe(4-COOH)]Y[Sar][Trp(βS-Me,7-OMe)][X1][Nle][4Pal][Pip(4-aza)]W[Gly(N-CH2CH2OH)]N))",–,–,> 1000,0.05
"CCCC[C@@H]1NC(=O)[C@@H]2CC[C@@H](C2)NC(=O)[C@H]([C@@H](C)c2c[nH]c3c(OC)cccc23)NC(=O)CN(C)C(=O)[C@H](Cc2ccc(C(=O)O)cc2)NC(=O)[C@H](Cc2ccc(C(N)=O)cc2)NC(=O)[C@](C)(CO)NC(=O)[C@H](Cc2c[nH]c3c(Cl)cccc23)NC(=O)[C@H](Cc2ccncc2)NC(=O)[C@H](CC(N)=O)NC(=O)[C@H]2C[C@H](O)CN2C(=O)[C@H](Cc2c[nH]c3ccccc23)NC(=O)[C@@H]2CNCCN2C(=O)[C@H](Cc2ccncc2)NC1=O [SEQ ID NO. 83] (cyclo([4Pal][Trp(7-Cl)][αMeS][Phe(4-CONH2)][Phe(4-COOH)][Sar][Trp(βS-Me,7-OMe)][X1][Nle][4Pal][Pip(4-aza)]W[dHyp]N))",> 1000,0.09,–,–
